Molecular target: Carbonic anhydrase 5A, mitochondrial (Homo sapiens, UniProt P35218)
Experiment: Inhibition of human carbonic anhydrase 5A

Sequence of Carbonic anhydrase 5A, mitochondrial (P35218 whole entry): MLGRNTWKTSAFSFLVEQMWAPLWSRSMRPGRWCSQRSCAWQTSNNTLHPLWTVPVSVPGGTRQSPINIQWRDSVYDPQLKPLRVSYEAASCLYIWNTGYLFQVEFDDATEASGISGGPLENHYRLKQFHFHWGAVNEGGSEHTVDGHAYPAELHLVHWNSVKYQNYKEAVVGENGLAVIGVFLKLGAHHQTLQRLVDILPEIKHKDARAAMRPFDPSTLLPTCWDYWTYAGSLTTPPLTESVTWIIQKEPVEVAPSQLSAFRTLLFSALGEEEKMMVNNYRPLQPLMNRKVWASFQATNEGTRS

- Kd: 0.0254 µM
Structure (SMILES): CC1(C)O[C@@H]2[C@@H](CO[C@@]3(COS(N)(=O)=O)OC(C)(C)O[C@@H]23)O1 [TOPIRAMATE]
